Patent US4241184A, “Secondary alcohol dehydrogenase enzyme and use thereof” (priority 1979, dated 1980)
Entries after “also recorded” stand apart in the source; their conditions may differ. Read-outs that look alike come from different tables or passages of the source.

How the values were obtained:
[1] = test system: P(40) particulate fraction of Methylosinus sp. (CRL-15, NRRL B-11,202); test: Oxidation of n-alkenes and n-alkanes by P(40) particulate fraction; format: biochemical; settings: substrate oxidized to its epoxide or alcohol, 30° C.
[2] = test system: cell-free particulate fractions derived from the methylotrophic microorganisms; test: Conversion of C3-C6 n-alkanes to sec. alcohols by cell-free particulate fractions: inhibitors and electron donors; format: biochemical
Source text: The conditions for preparing the cell suspensions or the cell-free particulate fractions from methane-grown methylotroph microorganisms is the same as described above. […] Tables XXV and XXVI show the conversion of C3 -C6 n-alkanes to the corresponding secondary alcohols using cell suspensions and cell-free particulate fractions, respectively, of methane-grown methylotroph microorganisms.

[3] = test system: P(40) particulate fraction of Methylosinus sp. (CRL-15, NRRL B-11,202); test: Effect of inhibitors on propylene epoxidation and methane hydroxylation by P(40) fraction; format: biochemical; settings: inhibitor 10^-3 M
Protocol: (§1) The oxidation of methane and propylene by particulate [(P)40 and(P)80] fractions and soluble [S(80)] fraction was measured at 30° C. by estimating the production of methanol and propylene oxide, respectively. The reaction mixtures contained in 1.0 ml: 150 mM potassium phosphate buffer, pH 7.0 containing 5 mM MgCl2, 0.6 ml; 10 μmoles NADH, and cellular fraction.
(§2) Reaction mixtures were contained in 10 ml vials at 4° C. Vials were sealed with rubber caps. The gaseous phase in the vials was removed using vacuum and then was replaced with a gas mixture of methane or propylene and oxygen at a 1:1, v/v ratio. Oxidation of other gaseous n-alkanes and n-alkenes was examined as described above. For liquid substrates, 10 μl of substrate was used directly. Vials were then incubated at 30° C. on a rotary shaker at 200 RPM.
It has been reported that the oxidation of methane by cell suspensions of methane-utilizing bacteria was inhibited by various metal-binding or metal-chelating agents (Patel et al., J. Bacteriol. 126: 1017-1019 (1976)). […] (CRL-15, NRRL B-11,202) was examined.

[4] = test system: secondary alcohol dehydrogenase; test: Purified yeast secondary alcohol dehydrogenase: substrates, electron acceptors, inhibitors, stoichiometry; format: biochemical, Pichia sp. NRRL Y-11,328
Protocol: Large scale cultures of Pichia sp. NRRL Y-11,328 were grown with aeration at 30° C. in a 14-liter New Brunswick f fermentor in a mineral salt medium containing methanol (0.4%, v/v) as the sole carbon source. The cells (200 g., wet weight) were suspended in […] sodium phosphate buffer, pH 7.0, containing 1 mM dithiothreitol (buffer A), and crude extracts were prepared as described previously. To the crude extracts, 18 ml. of protamine sulfate solution [2% solution in 0.1 M tris (hydroxymethyl) aminomethane (tris) base] was added dropwise with continuous stirring. After standing for 30 min., the extracts were centrifuged at 20,000×g. for 60 min. The supernatant solution was fractionated with solid ammonium sulfate. Extracts were brought to 50% of saturation with respect to ammonium sulfate by addition of 313 g. of the salt per liter of extract. Precipitated proteins was removed by centrifugation, and 137 g. of ammonium sulfate was added per liter of the supernatant liquid to bring it to 70% of saturation. Material precipitating between 50 and 70% of saturation was collected by centrifugation and dissolved in buffer A. This preparation was dialyzed overnight against buffer A, and the dialyzed material was applied to a DEAE-cellulose column (5×40 cm) that had been equilibrated with buffer A. The sample was washed with 200 ml. of buffer A and eluted with 2 liters of buffer A that contained NaCl in a linear gradient running from a concentration of 0 to 0.5 M. Fractions of 15 ml. were collected. Fractions containing secondary alcohol dehydrogenase activity were pooled and were termed DEAE-cellulose eluate. The DEAE-cellulose eluate was concentrated by ammonium sulfate fractionation.
Secondary alcohol dehydrogenase activity was measured spectrophotometrically at 340 nm with a NAD^+ as an electron acceptor. The reaction mixture, in a total 3.0 ml., contained 50 mM phosphate buffer, pH 8.0, 5μ moles NAD^+, crude extracts, and subtrate. The reactions were started by addition of 100 μl of 0.1 M substrate and the rate of NAD^+ reduction was measured. Protein concentration was determined by the method of Lowry et al.
The substrate specificity of the purified secondary alcohol dehydrogenase was examined spectrophotometrically.

[5] = test system: P(40) particulate fraction of Methylosinus sp. (CRL-15, NRRL B-11,202); test: Effect of metals on propylene epoxidation and methane hydroxylation by P(40) fraction; format: biochemical; settings: metal 10^-3 M; for Methane-Oxidizing Activity in presence of metal: control 4.0; for Propylene-Oxidizing Activity in presence of metal: control […]
Protocol: as §1
as §2, with “directly.” for “directly. Vials were then incubated at 30° C. on a rotary shaker at 200 RPM.”
Since the methane mono-oxygenase from methane-utilizing bacteria is a copper or iron-containing protein (Tonge et al., J. Biochem., 161: 333-344 (1977)), we have examined the effect of copper and iron salts on the oxidation of methane and propylene by the P(40) particulate fraction of Methylosinus sp. (CRL-15, NRRL B-11,202). The rate of hydroxylation of methane to methanol and epoxidation of propylene to propylene oxide was increased twofold in the presence of added copper salts (Table XII).

[6] = Oxidation of 2-butanol to 2-butanone by cell-free soluble extracts of C1-utilizing microbes; format: biochemical
Protocol: The clear supernatant contained the SADH activity. […] The reaction was started by the addition of substrate.
Catalytic activity was also assayed by fluorescence spectrophotometry.

[7] = test system: Methylococcus capsulatus (CRL Ml, NRRL B-11,219); test: Effect of inhibitors on epoxidation of propylene and hydroxylation of methane, cell-containing enzyme preparation; format: cell-based; settings: Methylococcus capsulatus, NRRLB11, 1 h
[8] = test system: Methylosinus trichosporium OB3b (NRRL B-11,196); test: as above; format: cell-based; settings: NRRLB11, 1 h
[9] = test system: Methylobacterium organophilum (CRL 26, NRRL B-11,222); test: as above; format: cell-based; settings: NRRLB11, 1 h
[10] = test system: secondary alcohol dehydrogenase (SADH); test: Purified secondary alcohol dehydrogenase activity (formation of reduced NAD); format: biochemical, Pseudomonas sp. ATCC 21439
Protocol: Secondary alcohol dehydrogenase (SADH) from an obligate methanol utilizer, Pseudomonas sp. ATCC 21439 was purified as follows. […] 0.05 M sodium phosphate buffer, pH 7.0 with 0.5 mM dithiothretol (buffer A) and were disrupted sonically (5×1 min.). The crude extract was separated by centrifugation. The crude extract was heat-treated at 50° C. in a water bath for 10 minutes. The resulting precipitate was removed by centrifugation. To the supernatant solution, 25 ml of protamine sulfate solution (2% solution in 0.1 M Tris base) was added dropwise with continuous stirring. After standing for 30 minutes, the extract was centrifuged. The supernatant solution was fractionated with solid ammonium sulfate. The material precipitating between 30 and 60% saturation was collected and was dialized overnight against buffer A. The The dialized material was applied to a DEAE-cellulose column (3 cm by 35 cm) that had been equilibrated with buffer A. The secondary alcohol dehydrogenase activity was eluted in the void volume. This DEAE-cellulose eluate was concentrated by ammonium sulfate fractionation. Material precipitating between 30 and 50% ammonium sulfate saturation was collected by centrifugation and dialyzed overnight against A. This fraction was further washed and filtered through an Amicon unit with XM 50 membrane. The concentrated fraction (6 ml) inside the Amicon unit was applied to an Affi-Gel Blue column (0.8 cm×18 cm) which had been equilibrated with buffer A for affinity chromatography. The column was washed overnight with buffer A (0.18 ml./min.) and then was eluted with buffer A containing 5 mM NAD. Each 1 ml. fraction was collected.
The purified secondary alcohol dehydrogenase enzyme (SADH) may be used directly for converting C3 -C6 secondary alcohols to the corresponding methyl ketones by the procedures described above; however, a source of NAD^+ must be added to the reaction medium. One can determine the NAD-linked secondary alcohol dehydrogenase activity with a fluorescence spectrophotometer (Perkin Elmer, Model MPF 44A) by following the formation of reduced NAD (Ex 340 nm, Em 460 nm). The assay system (3 ml.) will typically contain: sodium phosphate buffer pH 7.0, 150 μmol; NAD 1.0 μmol; a given amount of enzyme preparation; and 20 μmol secondary alcohol. The reaction is started by the addition of secondary alcohol. One unit of SADH enzyme activity represents the reduction of one nmole NAD per minute.
The effect of metal-chelating agents and thioreagents on the activity of the purified SADH enzyme were studied. […] The possibility of ethanol or n-propanol as an inhibitor was studied.

[11] = read-out: % Inhibition, Epoxidation
[12] = read-out: % Inhibition, Hydroxylation

C=CCC [1-Butene]
Rate of Product Formation [1]: 2.18 μ moles/hr/mg of protein

Oc1cccc2cccnc12 [8-Hydroxyquinoline]
inhibition of the conversion of the n-alkanes to the sec. alcohols [2]: inhibited
% Inhibition, Methane-Hydroxylating Activity [3]: 80%
% Inhibition, Propylene-Epoxidizing Activity [3]: 75%

C=CC=C [Butadiene]
Rate of Product Formation [1]: 0.63 μ moles/hr/mg of protein

O=S(=O)([O-])[O-].[Cu+2] [Cupric Sulfate]
inhibition of secondary alcohol dehydrogenase activity [4]: inhibited
Methane-Oxidizing Activity in presence of metal [5]: 7.1 μmoles/hr/mg protein
Propylene-Oxidizing Activity in presence of metal [5]: 9.0 μmoles/hr/mg protein

[Cl][Cu] [Cuprous Chloride]
Methane-Oxidizing Activity in presence of metal [5]: 7.2 μmoles/hr/mg protein
Propylene-Oxidizing Activity in presence of metal [5]: 9.2 μmoles/hr/mg protein

CC [Ethane]
Rate of Product Formation [1]: 3.2 μ moles/hr/mg of protein

C=C [Ethylene]
Rate of Product Formation [1]: 1.27 μ moles/hr/mg of protein

Cc1cc2nc3c(=O)[nH]c(=O)nc-3n(C[C@H](O)[C@H](O)[C@H](O)COP(=O)(O)OP(=O)(O)OC[C@H]3O[C@@H](n4cnc5c(N)ncnc54)[C@H](O)[C@@H]3O)c2cc1C [FAD, flavin adenine dinucleotide]
electron acceptor for the purified enzyme [4]: could not act as electron carrier
cofactor for oxidation of secondary alcohols in the cell-free system [6]: not effective

[Cl][Fe]([Cl])[Cl] [Ferric Chloride]
Methane-Oxidizing Activity in presence of metal [5]: 4.8 μmoles/hr/mg protein
Propylene-Oxidizing Activity in presence of metal [5]: 5.8 μmoles/hr/mg protein

c1c[nH]cn1 [Imidazole]
inhibition of secondary alcohol dehydrogenase activity [4]: strongly inhibited
inhibition at 1000 µM [7, 11]: 95%
inhibition at 1000 µM [7, 12]: 95%
inhibition at 1000 µM [8, 11]: 95%
inhibition at 1000 µM [8, 12]: 90%
inhibition at 1000 µM [9, 11]: 100%
inhibition at 1000 µM [9, 12]: 100%

NC(=O)C1=CN([C@@H]2O[C@H](COP(=O)(O)OP(=O)(O)OC[C@H]3O[C@@H](n4cnc5c(N)ncnc54)[C@H](OP(=O)(O)O)[C@@H]3O)[C@@H](O)[C@H]2O)C=CC1 [NAD(P)H]
cofactor for oxidation of secondary alcohols in the cell-free system [6]: not effective

NC(=O)c1ccc[n+]([C@@H]2O[C@H](COP(=O)([O-])OP(=O)(O)OC[C@H]3O[C@@H](n4cnc5c(N)ncnc54)[C@H](O)[C@@H]3O)[C@@H](O)[C@H]2O)c1 [NAD, Nicotinamide adenine dinucleotide]
Km ([10]; Line-Weaver-Burk plot, read-out: Michaelis constants (Km) of SADH): 11 µM
Km ([10]; pure SADH, read-out: Km values): 11 µM
electron acceptor for the purified enzyme [4]: required
cofactor for oxidation of secondary alcohols in the cell-free system [6]: requirement; also recorded: required

NC(=O)c1ccc[n+]([C@@H]2O[C@H](COP(=O)(O)OP(=O)(O)OC[C@H]3O[C@@H](n4cnc5c(N)ncnc54)[C@H](OP(=O)(O)O)[C@@H]3O)[C@@H](O)[C@H]2O)c1 [NADP]
electron acceptor for the purified enzyme [4]: could not act as electron carrier
cofactor for oxidation of secondary alcohols in the cell-free system [6]: not effective

NNC(N)=S [Thiosemicarbazide]
inhibition of the conversion of the n-alkanes to the sec. alcohols [2]: inhibited
% Inhibition, Methane-Hydroxylating Activity [3]: 100%
% Inhibition, Propylene-Epoxidizing Activity [3]: 97%

O=C1C(Cl)=CC(=Nc2ccc(O)cc2)C=C1Cl [dichlorophenol indophenol]
electron acceptor for the purified enzyme [4]: could not act as electron carrier
cofactor for oxidation of secondary alcohols in the cell-free system [6]: not effective

N[C@@H](CCC(=O)N[C@@H](CS)C(=O)NCC(=O)O)C(=O)O [glutathione]
inhibition of secondary alcohol dehydrogenase activity [4]: strongly inhibited
cofactor for oxidation of secondary alcohols in the cell-free system [6]: not effective

C[n+]1c2ccccc2nc2ccccc21 [phenazine methosulfate]
electron acceptor for the purified enzyme [4]: could not act as electron carrier
cofactor for oxidation of secondary alcohols in the cell-free system [6]: not effective

Ferrous Sulfate
Methane-Oxidizing Activity in presence of metal [5]: 4.8 μmoles/hr/mg protein
Propylene-Oxidizing Activity in presence of metal [5]: 5.9 μmoles/hr/mg protein
